This note sets out measurements from paper PMC3907359, “Investigation of Acetylcholine Receptor Diversity in a Nematode Parasite Leads to Characterization of Tribendimidine- and Derquantel-Sensitive nAChRs” (PLoS Pathogens, 2014).

Common to all, as to type: cell-based
In test [1] the target is T1, Ode(29-63-8), ACh-nAChR (Oesophagostomum dentatum, UniProt E5KIX9+L7MMZ7+V5J2B2).
T1 construct: full-length cDNAs (UNC-29 497 aa, UNC-63 507 aa, ACR-8 538 aa), pTB-207, cRNA 1:1:1 in Xenopus laevis oocytes; heteropentamer, stoichiometry undetermined; with H. contortus chaperones RIC-3, UNC-50, UNC-74
T1 sequence (V5J2B2 21-497): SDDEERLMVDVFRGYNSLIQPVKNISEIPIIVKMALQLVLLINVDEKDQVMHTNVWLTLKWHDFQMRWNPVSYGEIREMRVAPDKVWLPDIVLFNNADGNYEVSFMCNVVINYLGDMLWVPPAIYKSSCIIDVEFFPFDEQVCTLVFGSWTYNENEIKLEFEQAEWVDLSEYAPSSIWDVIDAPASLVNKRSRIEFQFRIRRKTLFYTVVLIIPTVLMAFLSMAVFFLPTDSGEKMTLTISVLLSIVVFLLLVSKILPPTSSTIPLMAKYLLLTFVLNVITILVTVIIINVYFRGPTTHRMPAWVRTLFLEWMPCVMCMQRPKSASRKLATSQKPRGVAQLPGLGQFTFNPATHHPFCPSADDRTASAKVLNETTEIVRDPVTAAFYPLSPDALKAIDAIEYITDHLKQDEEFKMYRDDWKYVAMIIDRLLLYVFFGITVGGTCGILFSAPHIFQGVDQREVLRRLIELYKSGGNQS
T1 sequence (E5KIX9 22-507): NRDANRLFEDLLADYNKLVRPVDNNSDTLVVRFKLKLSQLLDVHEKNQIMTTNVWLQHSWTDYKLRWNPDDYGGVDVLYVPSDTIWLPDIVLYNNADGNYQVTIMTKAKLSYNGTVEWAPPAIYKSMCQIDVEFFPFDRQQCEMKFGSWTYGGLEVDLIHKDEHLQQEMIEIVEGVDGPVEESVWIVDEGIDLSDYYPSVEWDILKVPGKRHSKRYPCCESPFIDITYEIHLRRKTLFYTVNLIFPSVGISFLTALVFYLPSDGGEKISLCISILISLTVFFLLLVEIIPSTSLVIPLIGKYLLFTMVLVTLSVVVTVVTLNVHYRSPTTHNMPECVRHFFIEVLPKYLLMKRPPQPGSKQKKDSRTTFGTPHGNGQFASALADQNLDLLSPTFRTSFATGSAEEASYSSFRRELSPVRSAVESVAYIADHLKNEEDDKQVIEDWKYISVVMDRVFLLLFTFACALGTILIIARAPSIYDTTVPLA
T1 sequence (L7MMZ7 21-538): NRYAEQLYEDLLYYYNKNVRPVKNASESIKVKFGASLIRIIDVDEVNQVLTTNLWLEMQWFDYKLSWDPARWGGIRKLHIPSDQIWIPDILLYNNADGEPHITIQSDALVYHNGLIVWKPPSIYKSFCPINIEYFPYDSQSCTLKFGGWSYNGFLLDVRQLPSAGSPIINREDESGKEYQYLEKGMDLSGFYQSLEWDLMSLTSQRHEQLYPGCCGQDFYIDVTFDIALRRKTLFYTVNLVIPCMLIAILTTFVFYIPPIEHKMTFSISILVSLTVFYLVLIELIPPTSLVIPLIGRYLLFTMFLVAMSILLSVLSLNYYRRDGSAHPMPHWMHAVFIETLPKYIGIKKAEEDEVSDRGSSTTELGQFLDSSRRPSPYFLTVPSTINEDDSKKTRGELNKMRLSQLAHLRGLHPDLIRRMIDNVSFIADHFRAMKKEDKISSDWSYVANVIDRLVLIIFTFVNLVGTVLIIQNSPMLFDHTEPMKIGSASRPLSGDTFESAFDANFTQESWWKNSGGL
The test can be described thus: voltage clamp, oocytes; single concentration current. The note with it: agonist, 30 µM.

Test [2] addresses T2, Ode(29-63-8-38), Lev-nAChR (Oesophagostomum dentatum, UniProt E5KIX9+L7MMZ7+V5J2B2+V5J336).
T2 construct: full-length cDNAs (UNC-29 497 aa, UNC-63 507 aa, ACR-8 538 aa, UNC-38 507 aa), pTB-207, cRNA 1:1:1:1 in Xenopus laevis oocytes; heteropentamer, stoichiometry undetermined; with H. contortus chaperones RIC-3, UNC-50, UNC-74
The experiment in a line: two-electrode voltage clamp, Xenopus oocytes, agonist dose-response. From the text: two-electrode voltage clamp, Xenopus oocytes, agonist dose-response on Ode(29-63-8-38), Lev-nAChR

Test [3] has as its target T1, Ode(29-63-8), ACh-nAChR. The test is described as above. From the text:
two-electrode voltage clamp, Xenopus oocytes, agonist dose-response on Ode(29-63-8), ACh-nAChR

T2 sequence (V5J336 21-507, one chain of several): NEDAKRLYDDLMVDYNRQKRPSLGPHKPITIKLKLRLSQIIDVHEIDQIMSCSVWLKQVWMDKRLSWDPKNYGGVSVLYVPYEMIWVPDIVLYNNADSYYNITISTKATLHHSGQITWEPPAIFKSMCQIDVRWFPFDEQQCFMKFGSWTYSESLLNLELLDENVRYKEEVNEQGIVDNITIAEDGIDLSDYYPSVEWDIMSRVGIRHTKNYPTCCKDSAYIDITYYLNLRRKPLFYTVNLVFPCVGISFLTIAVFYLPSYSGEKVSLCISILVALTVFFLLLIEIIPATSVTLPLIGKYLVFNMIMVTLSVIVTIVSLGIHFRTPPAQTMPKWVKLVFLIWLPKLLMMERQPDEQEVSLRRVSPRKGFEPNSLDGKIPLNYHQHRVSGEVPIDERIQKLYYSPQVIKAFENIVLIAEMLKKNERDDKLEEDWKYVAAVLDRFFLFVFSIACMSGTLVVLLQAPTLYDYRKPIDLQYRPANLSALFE

Turning to `C[N+](C)(CCOc1ccccc1)Cc1ccccc1` [bephenium], the “voltage clamp, oocytes; single concentration current” value at Ode(29-63-8), ACh-nAChR [1] is “responses to all the agonists we tested, including bephenium and thenium”. For `CC(=O)OCC[N+](C)(C)C` [acetylcholine], the EC50 in test [2] stood at 4.2 ± 0.2 µM; on Ode(29-63-8), ACh-nAChR [3], 3.5 ± 0.2 µM.
